pEC50: −log10 of the molar value. Where two headings read alike, the source gives them in different places.
Columns and labels:
MC38 colorectal tumor = assay: Efficacy in isotype MC38 colorectal tumor mice model; format: in vivo, C57BL/6 mice
Description: Female C57BL/6 mice (20-25 gram, 7-9 weeks old) were used in the experiment. In vivo antitumor activity of the compound of Example 1 administered alone or the compound of Example 1 administered in combination with anti-mouse PD-1 antibody was evaluated by detecting the growth of isotype MC38 colorectal tumor in inbred C57BL/6 mice. 500,000 (5×10^5) MC38 cells were implanted subcutaneously in the right abdomen of each mouse. When the tumor grew to 40-80 mm^3 (on Day 6), the mice were grouped randomly into the above four groups. In Group III and IV, the mice were administered the compound of Example 1 (0.5 mg/kg) once a day for 20 consecutive days. During the treatment experiment in Group II and IV, the anti-mouse PD-1 (CD279) antibody (BioXcell) (5 mg/kg) was intraperitoneally injected (i.p.) to the mice bearing MC38 tumor on Day 6, 9, 12 and 15, respectively. […]
The tumor volume was measured with a caliper in three dimensions, and then calculated according to the following formula: tumor volume (mm^3)=1×w×h×0.5236, wherein 1 represents the length of the tumor, w represents the width of the tumor, and h represents the height of the tumor, in millimeters. […]

IL-17A = IL-17A enzyme-linked immune quantitative assay in cytostim-activated human PBMC; format: cell-based; details: 72 h, 3 days
Description: Frozen human peripheral blood mononuclear cells (PBMC) were rapidly resuscitated in pre-warmed lymphocyte culture medium, and centrifuged at 1000 rpm for 10 min. The cell culture supernatant was removed. The cells were gently suspended in TexMACS medium and counted. The T cell activation reagent cytostim (10 μl/ml) was added in proportion to the cell suspension. Then, the cells were seeded in a 96-well cell culture plate at a density of 1×10^5 peripheral blood mononuclear cells/well. The test compounds were diluted in gradient with TexMACS medium, and added respectively to the test wells, with 2-3 parallel wells per group. A negative control well containing only cells without cytostim was provided to obtain the background reading. The cell culture plate was placed in a incubator at 5% carbon dioxide, 37° C. to incubate for 3 days. The cell culture supernatant was collected 3 days after drug treatment, and centrifuged to remove the suspension. Then, IL-17A in the supernatant was quantified with IL-17A enzyme-linked immunosorbent kit. EC50 values of the test compounds were calculated with GraphPad Prism 6.0.

[1] = Pharmacokinetics assay in mice; format: in vivo; details: female, mouse, po, C57 mice, intragastric, 2 mg/kg; for Vd/F: read-out: Apparent distribution volume Vz/F; for AUC: read-out: Area under curve AUC; for CL/F: read-out: Clearance CLz/F; for half-life: read-out: Half-life T½ (converted); for Cmax: read-out: Plasma concentration Cmax; for MRT: read-out: Residence time MRT
Description: Mice were used as test animals. […] The pharmacokinetic behavior of the compounds of the present invention was studied and evaluated in mice. A group of eighteen C57 mice (female, equally divided into two groups) were purchased from Shanghai Jiesijie Laboratory Animal Co., LTD, with Certificate No.: SCXK (Shanghai) 2013-0006. A certain amount of the test compound was weighed, and added with 5% by volume of DMSO, 5% by volume of tween 80 and 90% by volume of normal saline to prepare a 0.1 mg/mL colorless, clear and transparent solution. […] The samples were stored in heparinized tubes, and centrifuged for 10 minutes at 3500 rpm to separate the blood plasma. The plasma samples were stored at −20° C. The content of the test compound in the plasma of mice after intragastrical administration of the test compound at different concentrations was determined: 25 μL of mouse plasma at each time after administration was taken, added with 80 μL of the internal standard solution of camptothecin (100 ng/mL) and 200 μL of acetonitrile, vortex-mixed for 5 minutes, and centrifuged for 10 minutes (3600 rpm). 1 μL of the supernatant was taken from the plasma samples for LC/MS/MS analysis.

RORγ LBD = target: T1, RORγ LBD (Homo sapiens, UniProt P51449); assay: LanthaScreen TR-FRET RORγ co-activation system, effect on in vitro activity of RORγ; format: biochemical
T1 construct: RORγ LBD (AB Vector); purchased AB Vector
T1 sequence (P51449 269-508 limits assumed): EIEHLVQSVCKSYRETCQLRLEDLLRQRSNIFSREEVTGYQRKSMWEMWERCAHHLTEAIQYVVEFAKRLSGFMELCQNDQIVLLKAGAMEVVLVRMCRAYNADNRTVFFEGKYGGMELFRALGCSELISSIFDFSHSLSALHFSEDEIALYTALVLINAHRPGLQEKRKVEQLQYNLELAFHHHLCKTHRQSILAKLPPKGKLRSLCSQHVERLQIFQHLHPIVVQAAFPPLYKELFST
Description: A complete buffer D (complete TR-FRET Coregulator) (Life Technologies) was formulated first, containing a final concentration of 5 mM DTT. The final concentration of DMSO was 2%. The test compound was serially diluted to 2× final concentration in the complete buffer D containing 2% of DMSO, and the maximum dose was 60 μm. The test compound was added to the test wells of a 384-well plate (PerkinElmer) in 10 μl/well. Two parallel control wells were set up for each test compound at the same concentration. 4×RORγ LBD (AB Vector) was formulated. RORγ LBD was diluted with the complete buffer D to a concentration of 1 ng/μL, and added to the test wells of the 384-well plate in 5 µl/well. The negative control well was 5 μL of complete buffer D without RORγ LBD. A mixed solution comprising 0.6 μM of fluorescein-D22 (4×) and 8 nM of terbium (Tb)-labeled anti-GST antibody (4×) (Life Technologies) was formulated with the complete buffer D, and 5 μL of the mixed solution was added to the 384-well plate. The total reaction system was 20 μL. The 384-well plate was gently shaken on a shaker, and incubated at room temperature in the dark for 2-4 hours.
Fluorescence readings were determined with Tecan Infinite M1000. The logarithmic curve of the ratio of the emission wavelength of 520 nm/495 nm to the concentration of the compound was plotted by GraphPad Prism 6.0 software. EC50 value of the test compound was calculated.

Row | Structure (SMILES) | pEC50 (IL-17A) | Emax (IL-17A) [%] | pEC50 (RORγ LBD) | Emax (RORγ LBD) [%] | also measured
1 | [2H]C([2H])(F)Cn1c(Cc2ccc(Cl)cc2C(F)(F)F)cc2cc(C(=O)N[C@@H](CO)c3ccc(S(=O)(=O)CC)cc3)ccc21 (single isomer, unassigned) [Example 1] | 7.66 | 88 | – | – | Tumor growth inhibition rate TGI (MC38 colorectal tumor; 0.5 mg/kg oral in combination with anti-mouse PD-1 monoclonal antibody 5 mg/kg i.p.): 65.5%; Tumor growth inhibition rate TGI (MC38 colorectal tumor; administered alone, 0.5 mg/kg oral, once a day for 20 days): 22.5%; Vd/F ([1]; plasma): 0.648 L/kg; AUC ([1]; plasma): 40400 ng·h/mL; CL/F ([1]; plasma): 0.82 mL/min/kg; half-life ([1]; plasma): 9.08 h; Cmax ([1]; plasma): 3710 ng/mL; MRT ([1]; plasma): 12 h
2 | [2H]C([2H])([2H])C([2H])([2H])S(=O)(=O)c1ccc([C@H](CO)NC(=O)c2ccc3c(c2)cc(Cc2ccc(Cl)cc2C(F)(F)F)n3CCF)cc1 (single isomer, unassigned) [Example 6] | 7.43 | 100 | – | – | Vd/F ([1]; in vivo): 0.575 L/kg; AUC ([1]; in vivo): 31600 ng·h/mL; CL/F ([1]; in vivo): 1.06 mL/min/kg; half-life ([1]; in vivo): 6.29 h; Cmax ([1]; in vivo): 2730 ng/mL; MRT ([1]; in vivo): 9.13 h
3 | [2H]C([2H])(c1cc2cc(C(=O)N[C@@H](CO)c3ccc(S(=O)(=O)CC)cc3)ccc2n1C1CC1)n1nccc1C(F)(F)F [Example 2, 1-Cyclopropyl-2-[dideutero-[5-(trifluoromethyl)pyrazol-1-yl]methyl]-N-[(1R)-1-(4-ethylsulfonylphenyl)-2-hydroxy-ethyl]indole-5-carboxamide] | – | – | 7.80 | 89 | –
4 | [2H]C([2H])(NC(=O)c1ccc2c(c1)cc(Cc1ccc(Cl)cc1C(F)(F)F)n2CCF)c1ccc(S(=O)(=O)CC)cc1 [Example 3, 2-[[4-Chloro-2-(trifluoromethyl)phenyl]methyl]-N-[dideutero-(4-ethylsulfonylphenyl)methyl]-1-(2-fluoroethyl)indole-5-carboxamide] | 6.99 | 102 | 7.77 | 98 | –
5 | [2H]C([2H])(NC(=O)c1ccc2c(c1)cc(Cc1ccccc1C(F)(F)F)n2C1CC1)c1ccc(S(=O)(=O)CC)cc1 [Example 4, 1-Cyclopropyl-N-[dideutero-(4-ethylsulfonylphenyl)methyl]-2-[[2-(trifluoromethyl)phenyl]methyl]indole-5-carboxamide] | 7.70 | 79 | 8.30 | 98 | –
6 | [2H]C([2H])(O)Cn1c(Cc2ccc(Cl)cc2C(F)(F)F)cc2cc(C(=O)N[C@@H](CO)c3ccc(S(=O)(=O)CC)cc3)ccc21 [Example 5, 2-[[4-Chloro-2-(trifluoromethyl)phenyl]methyl]-1-(2,2-dideutero-2-hydroxy-ethyl)-N-[(1R)-1-(4-ethylsulfonylphenyl)-2-hydroxy-ethyl]indole-5-carboxamide] | 7.49 | 82 | 8.05 | 73 | –
7 | [2H]C([2H])([2H])OC[C@H](NC(=O)c1ccc2c(c1)cc(Cc1ccc(Cl)cc1C(F)(F)F)n2CCF)c1ccc(S(=O)(=O)CC)cc1 [Example 8, 2-[[4-Chloro-2-(trifluoromethyl)phenyl]methyl]-N-[(1R)-1-(4-ethylsulfonylphenyl)-2-(trideuteromethoxy)ethyl]-1-(2-fluoroethyl)indole-5-carboxamide] | – | – | 7.47 | 85 | –
8 | [2H]C([2H])(C)n1c(Cc2ccc(Cl)cc2C(F)(F)F)cc2cc(C(=O)N[C@@H](CO)c3ccc(S(=O)(=O)CC)cc3)ccc21 [Example 11, 2-[[4-Chloro-2-(trifluoromethyl)phenyl]methyl]-1-(1,1-dideuteroethyl)-N-[(1R)-1-(4-ethylsulfonylphenyl)-2-hydroxyethyl]indole-5-carboxamide] | – | – | 7.68 | 84 | –
9 | [2H]C([2H])(F)Cn1c(Cc2ccc(Cl)cc2C(F)(F)F)cc2cc(C(=O)N[C@@H](CO)c3ccc(S(=O)(=O)CC)cn3)ccc21 [Example 13, 2-[[4-Chloro-2-(trifluoromethyl)phenyl]methyl]-1-(2,2-dideutero-2-fluoro-ethyl)-N-[(1R)-1-(5-ethylsulfonyl-2-pyridinyl)-2-hydroxy-ethyl]indole-5-carboxamide] | 7.66 | 88 | 8.05 | 77 | –
